In patent US20260317306A1, “HETEROARYL DERIVATIVE COMPOUND AND USE THEREOF” (S2CBIO INC., priority 2022, published 2026) one finds inhibition data, which are given here for two molecules.

The assay deals with T1, human ANO6 (variant 5) (Homo sapiens, UniProt Q4KMQ2).
T1 construct: expressing human ANO6 (variant 5; NP_001191732.1); expressed in transfected cells; host or cells: Fischer rat thyroid (FRT) cells
T1 sequence (Q4KMQ2 1-931 isoform Q4KMQ2-2): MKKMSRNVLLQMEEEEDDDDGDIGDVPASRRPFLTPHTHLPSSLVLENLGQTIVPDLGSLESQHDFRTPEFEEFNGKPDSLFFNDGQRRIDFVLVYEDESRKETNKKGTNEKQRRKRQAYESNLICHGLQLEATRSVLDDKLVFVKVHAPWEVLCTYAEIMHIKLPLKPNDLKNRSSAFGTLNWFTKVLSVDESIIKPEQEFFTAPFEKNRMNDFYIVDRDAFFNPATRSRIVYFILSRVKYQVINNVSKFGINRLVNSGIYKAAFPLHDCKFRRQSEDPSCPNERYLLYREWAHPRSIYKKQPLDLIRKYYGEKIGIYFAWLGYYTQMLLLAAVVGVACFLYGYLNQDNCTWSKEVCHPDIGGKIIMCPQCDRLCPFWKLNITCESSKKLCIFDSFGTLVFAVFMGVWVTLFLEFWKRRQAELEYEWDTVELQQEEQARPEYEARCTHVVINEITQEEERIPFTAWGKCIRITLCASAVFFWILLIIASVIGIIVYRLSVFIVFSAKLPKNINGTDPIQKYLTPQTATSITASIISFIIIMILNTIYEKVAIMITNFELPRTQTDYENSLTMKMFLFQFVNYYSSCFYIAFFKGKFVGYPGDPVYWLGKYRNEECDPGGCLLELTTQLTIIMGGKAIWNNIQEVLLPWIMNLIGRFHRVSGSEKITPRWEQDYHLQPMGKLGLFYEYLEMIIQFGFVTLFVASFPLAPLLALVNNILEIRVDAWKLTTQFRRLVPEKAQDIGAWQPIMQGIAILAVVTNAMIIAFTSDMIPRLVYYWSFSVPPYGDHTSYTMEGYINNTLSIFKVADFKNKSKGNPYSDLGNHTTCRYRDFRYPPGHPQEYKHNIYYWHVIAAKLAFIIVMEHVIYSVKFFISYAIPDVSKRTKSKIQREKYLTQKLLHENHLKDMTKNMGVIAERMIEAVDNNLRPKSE
The experiment in a line: Lact C2 Assay (Measuring Phosphatidylserine Externalization Scramblase Function), ionomycin-treated Fischer rat thyroid (FRT) cells expressing human ANO6 (variant 5); compounds at 50 nM, 100 nM and 1 μM. In kind it is cell-based. The note with it: 10 μM ionomycin, average of three tests, read-out: % Inhibition (phosphatidylserine externalization inhibitory activity); for inhibition at 0.05 µM: compound at 50 nM; for inhibition at 0.1 µM: compound at 100 nM. The protocol: Ionomycin (Alomonelab, cat. #I-700), DAPI (Sigma-Aldrich, cat. #D8417), paraformaldehyde (Biosesang, cat. #P2031), Lionheart FX automated fluorescence microscope (BioTek), Gen5™ software program (BioTek), and Image J analysis software program.
Fisher rat thyroid (FRT) cells expressing human ANO6 (variant 5; GenBank accession no. NP_001191732.1) were cultured at 37° C. under 5% Co2 conditions in DMEM/Ham's F-12 (1:1) medium supplemented with 10% Fetal Bovine Serum, 2 mM […], 100 units/mL penicillin, and 100 μg/mL streptomycin.
Fischer Rat Thyroid (FRT) cells (2×10^4 cells/well) expressing human ANO6 (variant 5) were cultured in a 96-well microplate for 24 hours. After the incubation, the cells were treated with compounds dissolved in DMSO to 1% v/v in each well at each concentration (50 nM, 100 nM, and 1 μM) and reacted for 10 minutes. Thereafter, each well was treated with ionomycin to a final concentration of 10 μM, allowed to react for 10 minutes, and then washed with 200 μL PBS. After washing, each well was treated with 50 μL of Lactadherin-C2 (Lact-C2)-GFP mixed in DMEM medium to a final concentration of 500 nM to stain phosphatidylserine, and cultured at 37° C. for 10 minutes. After completion of the reaction, the cells were washed with 200 μL PBS, and fixed with 4% paraformaldehyde for 5 minutes at room temperature. For morphological analysis, DAPI solution was added, and the cells were incubated for 15 minutes, followed by washing with PBS. The fluorescence intensity of Lact-C2-GFP bound to phosphatidylserine on the cell surface was measured using an automated fluorescence microscope. For quantitative analysis of the fluorescence intensity of Lact-C2-GFP, BioTek Gen5™ software and Image J analysis software programs were used.
Phosphatidylserine externalization inhibitory activity (%) by the compound was calculated through the following analysis method. Specifically, the background fluorescence value was subtracted from the measured Lact-C2-GFP fluorescence value, and the fluorescence value of the ionomycin non-treatment group and the ionomycin-treatment group in the same row where each test group was located in a 96-well microplate were calculated. In order to calculate the inhibitory activity (%) by the compound, the relative inhibitory activity was calculated by setting the compound and ionomycin non-treatment group to 100% inhibitory activity and the ionomycin alone treatment group to 0% inhibitory activity. To derive the results, the test was repeated three times, and the average values of the results were classified according to the range below and shown in Table 4 below (A: >60% inhibition, B: 30 to 60% inhibition, N/A: no test).

What is called inhibition is the share of the control response that was lost under treatment.

Turning to `Fc1ccc2nc(-c3cccc(Nc4ccc(-c5cccnn5)cn4)c3)[nH]c2c1` [Example 55], the inhibition at 0.05 µM is > 60% and the inhibition at 0.1 µM was > 60%.
Consider `c1cc(Nc2ncc(-c3ccncn3)cn2)cc(-c2nc3ccccc3[nH]2)c1` [Example 76, N-[3-(1H-benzo[d]imidazol-2-yl)phenyl]-[4,5′-bipyrimidin]-2′-amine], for which the inhibition at 0.05 µM is 30 to 60% and the inhibition at 0.1 µM is > 60%.
